Experimental data reported in patent US7375083B2, “Pharmaceutical compositions for prevention of overdose or abuse” (Shire LLC, priority 2003, dated 2008).

Columns and labels:
[1] = test system: Male Sprague-Dawley rats; assay: Horizontal locomotor activity after oral administration; format: in vivo; conditions: oral gavage, 6 mg/kg amphetamine equivalent
[2] = test system: Male Sprague-Dawley rats; assay: Locomotor activity after intranasal administration with and without CMC; format: in vivo
[3] = test system: Male Sprague-Dawley rats; assay: Locomotor activity after intravenous administration; format: in vivo
[4] = Oral pharmacokinetics in rats, plasma d-amphetamine by ELISA; conditions: rat; oral; 60 mg/kg
[5] = test system: Anesthetized Dog; assay: Cardiovascular effects after intravenous bolus injection in anesthetized dogs
[6] = 1.0 mg/kg amphetamine equivalent, 1 h
[7] = 1.0 mg/kg, activity above baseline relative to d-amphetamine
[8] = 1.0 mg/kg amphetamine equivalent, 3 h

Compound: C[C@H](N)Cc1ccccc1 [d-amphetamine, reference compound]
- Peak of activity (Counts per 0.2 h) ([1]; 5 Hours): 291 Counts per 0.2 h
- Time of Last Count Above 200 per 0.2 h ([1]; 5 Hours): 2.6 h
- Total Activity Counts ([1]; 5 Hours): 515 Counts
- Total Activity Counts Above Baseline ([1]; 5 Hours): 0 Counts
- Peak of activity (Counts per 0.2 h) ([1]; 12 Hours): 223 Counts per 0.2 h
- Time of Last Count Above 100 per 0.2 h ([1]; 12 Hours): 6.4 h
- Total Activity Counts ([1]; 12 Hours): 6622 Counts
- Total Activity Counts Above Baseline ([1]; 12 Hours): 5686 Counts
- Total Activity Counts (1 h) [2, 6]: 858 Counts
- Total Activity Counts Above Baseline [2, 6]: 686 Counts
- Percent d-amphetamine [2, 7]: 100%
- Total Activity Counts 3 h [3, 8]: 1659 Counts
- Total Activity Counts Above Baseline [3, 8]: 1355 Counts
- Percent d-amphetamine [3, 7]: 100%
- Animals that died or were sacrificed due to acute symptoms of toxicity [4]: 8 of 12
- DAP % Change from respective Time 0 ([5]; 0.202 mg/kg, TIME 0): 0%
- LVP % Change from respective Time 0 ([5]; 0.202 mg/kg, TIME 0): 0%
- MAP % Change from respective Time 0 ([5]; 0.202 mg/kg, TIME 0): 0%
- MAP - mean arterial pressure ([5]; 0.202 mg/kg, TIME 0): 84 mmHg
- SAP % Change from respective Time 0 ([5]; 0.202 mg/kg, TIME 0): 0%
- SAP - systolic arterial pressure ([5]; 0.202 mg/kg, TIME 0): 111 mmHg
- DAP % Change from respective Time 0 ([5]; 0.202 mg/kg, TIME 5): 117%
- LVP % Change from respective Time 0 ([5]; 0.202 mg/kg, TIME 5): 107%
- MAP % Change from respective Time 0 ([5]; 0.202 mg/kg, TIME 5): 109%
- MAP - mean arterial pressure ([5]; 0.202 mg/kg, TIME 5): 176 mmHg
- SAP % Change from respective Time 0 ([5]; 0.202 mg/kg, TIME 5): 97%
- SAP - systolic arterial pressure ([5]; 0.202 mg/kg, TIME 5): 218 mmHg
- DAP % Change from respective Time 0 ([5]; 0.202 mg/kg, TIME 15): 45%
- LVP % Change from respective Time 0 ([5]; 0.202 mg/kg, TIME 15): 52%
- MAP % Change from respective Time 0 ([5]; 0.202 mg/kg, TIME 15): 49%
- MAP - mean arterial pressure ([5]; 0.202 mg/kg, TIME 15): 125 mmHg
- SAP % Change from respective Time 0 ([5]; 0.202 mg/kg, TIME 15): 52%
- SAP - systolic arterial pressure ([5]; 0.202 mg/kg, TIME 15): 168 mmHg
- DAP % Change from respective Time 0 ([5]; 0.202 mg/kg, TIME 25): 30%
- LVP % Change from respective Time 0 ([5]; 0.202 mg/kg, TIME 25): 37%
- MAP % Change from respective Time 0 ([5]; 0.202 mg/kg, TIME 25): 31%
- MAP - mean arterial pressure ([5]; 0.202 mg/kg, TIME 25): 110 mmHg
- SAP % Change from respective Time 0 ([5]; 0.202 mg/kg, TIME 25): 34%
- SAP - systolic arterial pressure ([5]; 0.202 mg/kg, TIME 25): 148 mmHg
- DAP % Change from respective Time 0 ([5]; 0.202 mg/kg, TIME 30): 20%
- LVP % Change from respective Time 0 ([5]; 0.202 mg/kg, TIME 30): 30%
- MAP % Change from respective Time 0 ([5]; 0.202 mg/kg, TIME 30): 23%
- MAP - mean arterial pressure ([5]; 0.202 mg/kg, TIME 30): 103 mmHg
- SAP % Change from respective Time 0 ([5]; 0.202 mg/kg, TIME 30): 26%
- SAP - systolic arterial pressure ([5]; 0.202 mg/kg, TIME 30): 140 mmHg
- DAP % Change from respective Time 0 ([5]; 0.404 mg/kg, TIME 0): 0%
- LVP % Change from respective Time 0 ([5]; 0.404 mg/kg, TIME 0): 0%
- MAP % Change from respective Time 0 ([5]; 0.404 mg/kg, TIME 0): 0%
- MAP - mean arterial pressure ([5]; 0.404 mg/kg, TIME 0): 101 mmHg
- SAP % Change from respective Time 0 ([5]; 0.404 mg/kg, TIME 0): 0%
- SAP - systolic arterial pressure ([5]; 0.404 mg/kg, TIME 0): 139 mmHg
- DAP % Change from respective Time 0 ([5]; 0.404 mg/kg, TIME 5): 88%
- LVP % Change from respective Time 0 ([5]; 0.404 mg/kg, TIME 5): 79%
- MAP % Change from respective Time 0 ([5]; 0.404 mg/kg, TIME 5): 85%
- MAP - mean arterial pressure ([5]; 0.404 mg/kg, TIME 5): 187 mmHg
- SAP % Change from respective Time 0 ([5]; 0.404 mg/kg, TIME 5): 73%
- SAP - systolic arterial pressure ([5]; 0.404 mg/kg, TIME 5): 240 mmHg
- DAP % Change from respective Time 0 ([5]; 0.404 mg/kg, TIME 15): 44%
- LVP % Change from respective Time 0 ([5]; 0.404 mg/kg, TIME 15): 43%
- MAP % Change from respective Time 0 ([5]; 0.404 mg/kg, TIME 15): 43%
- MAP - mean arterial pressure ([5]; 0.404 mg/kg, TIME 15): 145 mmHg
- SAP % Change from respective Time 0 ([5]; 0.404 mg/kg, TIME 15): 39%
- SAP - systolic arterial pressure ([5]; 0.404 mg/kg, TIME 15): 193 mmHg
- DAP % Change from respective Time 0 ([5]; 0.404 mg/kg, TIME 25): 17%
- LVP % Change from respective Time 0 ([5]; 0.404 mg/kg, TIME 25): 26%
- MAP % Change from respective Time 0 ([5]; 0.404 mg/kg, TIME 25): 20%
- MAP - mean arterial pressure ([5]; 0.404 mg/kg, TIME 25): 122 mmHg
- SAP % Change from respective Time 0 ([5]; 0.404 mg/kg, TIME 25): 19%
- SAP - systolic arterial pressure ([5]; 0.404 mg/kg, TIME 25): 166 mmHg
- DAP % Change from respective Time 0 ([5]; 0.404 mg/kg, TIME 30): 11%
- LVP % Change from respective Time 0 ([5]; 0.404 mg/kg, TIME 30): 22%
- MAP % Change from respective Time 0 ([5]; 0.404 mg/kg, TIME 30): 16%
- MAP - mean arterial pressure ([5]; 0.404 mg/kg, TIME 30): 117 mmHg
- SAP % Change from respective Time 0 ([5]; 0.404 mg/kg, TIME 30): 16%
- SAP - systolic arterial pressure ([5]; 0.404 mg/kg, TIME 30): 160 mmHg
- DAP % Change from respective Time 0 ([5]; 2.02 mg/kg, TIME 0): 0%
- LVP % Change from respective Time 0 ([5]; 2.02 mg/kg, TIME 0): 0%
- MAP % Change from respective Time 0 ([5]; 2.02 mg/kg, TIME 0): 0%
- MAP - mean arterial pressure ([5]; 2.02 mg/kg, TIME 0): 115 mmHg
- SAP % Change from respective Time 0 ([5]; 2.02 mg/kg, TIME 0): 0%
- SAP - systolic arterial pressure ([5]; 2.02 mg/kg, TIME 0): 158 mmHg
- DAP % Change from respective Time 0 ([5]; 2.02 mg/kg, TIME 5): 48%
- LVP % Change from respective Time 0 ([5]; 2.02 mg/kg, TIME 5): 40%
- MAP % Change from respective Time 0 ([5]; 2.02 mg/kg, TIME 5): 47%
- MAP - mean arterial pressure ([5]; 2.02 mg/kg, TIME 5): 169 mmHg
- SAP % Change from respective Time 0 ([5]; 2.02 mg/kg, TIME 5): 44%
- SAP - systolic arterial pressure ([5]; 2.02 mg/kg, TIME 5): 228 mmHg
- DAP % Change from respective Time 0 ([5]; 2.02 mg/kg, TIME 15): 23%
- LVP % Change from respective Time 0 ([5]; 2.02 mg/kg, TIME 15): 24%
- MAP % Change from respective Time 0 ([5]; 2.02 mg/kg, TIME 15): 23%
- MAP - mean arterial pressure ([5]; 2.02 mg/kg, TIME 15): 142 mmHg
- SAP % Change from respective Time 0 ([5]; 2.02 mg/kg, TIME 15): 24%
- SAP - systolic arterial pressure ([5]; 2.02 mg/kg, TIME 15): 196 mmHg
- DAP % Change from respective Time 0 ([5]; 2.02 mg/kg, TIME 25): 17%
- LVP % Change from respective Time 0 ([5]; 2.02 mg/kg, TIME 25): 19%
- MAP % Change from respective Time 0 ([5]; 2.02 mg/kg, TIME 25): 17%
- MAP - mean arterial pressure ([5]; 2.02 mg/kg, TIME 25): 135 mmHg
- SAP % Change from respective Time 0 ([5]; 2.02 mg/kg, TIME 25): 20%
- SAP - systolic arterial pressure ([5]; 2.02 mg/kg, TIME 25): 189 mmHg
- DAP % Change from respective Time 0 ([5]; 2.02 mg/kg, TIME 30): 13%
- LVP % Change from respective Time 0 ([5]; 2.02 mg/kg, TIME 30): 16%
- MAP % Change from respective Time 0 ([5]; 2.02 mg/kg, TIME 30): 12%
- MAP - mean arterial pressure ([5]; 2.02 mg/kg, TIME 30): 129 mmHg
- SAP % Change from respective Time 0 ([5]; 2.02 mg/kg, TIME 30): 16%
- SAP - systolic arterial pressure ([5]; 2.02 mg/kg, TIME 30): 183 mmHg
- Effect on mean blood pressure after the first (lowest) dose ([5]; dog, IV bolus, 0.202 mg/kg d-amphetamine, equimolar to 0.5 mg/kg L-lysine-d-amphetamine): acute doubling of the mean BP
